Assay results from ChEMBL document CHEMBL2177034, “Inhibition of hypoxia inducible factor-2 transcription: isolation of active modulators from marine sponges” (J Nat Prod, 2012).
The source made the active and inactive calls. No cut-off for these calls is given here.

Columns and labels:
786-0 [1] = experiment: Downregulation of HIF1alpha mRNA expression in human 786-0 cells at 79 uM after 48 hrs by RT-PCR analysis; assay type: functional, cell-based
786-0 [2] = experiment: Upregulation of carbonic anhydrase 9 mRNA expression in human 786-0 cells at 79 uM after 48 hrs by RT-PCR analysis; assay type: ADME, cell-based; details: 786-0, 48 h
[3] = biological target: T1, Endothelial PAS domain-containing protein 1 (Homo sapiens, UniProt Q99814); experiment: Inhibition of HIF2alpha in human 786-0 cells assessed as reduction in VEGFA mRNA expression at 79 uM after 48 hrs by RT-PCR analysis; assay type: cell-based
T1 sequence (Q99814 whole entry, the tested form may be a part): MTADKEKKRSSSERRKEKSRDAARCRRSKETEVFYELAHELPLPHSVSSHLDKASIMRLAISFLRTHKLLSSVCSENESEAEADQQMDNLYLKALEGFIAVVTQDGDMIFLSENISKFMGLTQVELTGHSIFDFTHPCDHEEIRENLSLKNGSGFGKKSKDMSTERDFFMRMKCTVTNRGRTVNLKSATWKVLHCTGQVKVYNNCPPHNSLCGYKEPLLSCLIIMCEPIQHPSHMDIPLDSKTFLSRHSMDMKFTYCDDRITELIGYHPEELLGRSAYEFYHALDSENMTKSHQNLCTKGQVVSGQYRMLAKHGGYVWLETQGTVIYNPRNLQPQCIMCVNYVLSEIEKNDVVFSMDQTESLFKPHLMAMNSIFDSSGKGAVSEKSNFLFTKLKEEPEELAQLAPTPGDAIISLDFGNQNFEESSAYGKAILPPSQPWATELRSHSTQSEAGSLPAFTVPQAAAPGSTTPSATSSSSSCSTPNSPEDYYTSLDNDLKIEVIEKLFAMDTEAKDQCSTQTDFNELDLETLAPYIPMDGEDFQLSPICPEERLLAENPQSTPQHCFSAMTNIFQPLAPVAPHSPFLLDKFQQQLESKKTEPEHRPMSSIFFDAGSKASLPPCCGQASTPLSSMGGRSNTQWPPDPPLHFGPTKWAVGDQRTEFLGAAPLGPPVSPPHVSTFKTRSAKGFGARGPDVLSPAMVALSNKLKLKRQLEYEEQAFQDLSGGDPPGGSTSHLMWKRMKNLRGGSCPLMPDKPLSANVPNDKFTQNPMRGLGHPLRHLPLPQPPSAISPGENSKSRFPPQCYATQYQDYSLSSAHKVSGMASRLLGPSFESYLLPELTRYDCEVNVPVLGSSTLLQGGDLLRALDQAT

[4] = biological target: T1, Endothelial PAS domain-containing protein 1; experiment: Inhibition of HIF2alpha in human 786-0 cells assessed as reduction in CCND1 mRNA expression at 79 uM after 48 hrs by RT-PCR analysis; assay type: cell-based
[5] = biological target: T1, Endothelial PAS domain-containing protein 1; experiment: Inhibition of HIF2alpha in human 786-0 cells assessed as reduction in GLUT1 mRNA expression at 79 uM after 48 hrs by RT-PCR analysis; assay type: cell-based
[6] = biological target: T1, Endothelial PAS domain-containing protein 1; experiment: Inhibition of HIF2alpha in human 786-0 cells assessed as reduction in TGFalpha mRNA expression at 79 uM after 48 hrs by RT-PCR analysis; assay type: cell-based
[7] = Cytotoxicity against human SK-RC-28 cells expressing HIF1alpha after 2 days by XTT assay; assay type: functional, cell-based; details: 48 h
[8] = Cytotoxicity against human RCC4 cells expressing HIF2alpha and HIF1alpha after 2 days by XTT assay; assay type: functional, cell-based; details: RCC4, 48 h
786-0 [9] = experiment: Cytotoxicity against human 786-0 cells expressing HIF2alpha after 2 days by XTT assay; assay type: functional, cell-based; details: 786-0, 48 h
786-0 [10] = experiment: Induction of total protein expression in serum deprived human 786-0 cells at 79 uM after 48 hrs relative to control; assay type: cell-based; details: 786-0, 48 h
786-0 [11] = experiment: Induction of HIF-mediated VEGFA expression in serum deprived human 786-0 cells at 79 uM after 48 hrs relative to control; assay type: cell-based
[12] = biological target: T1, Endothelial PAS domain-containing protein 1; experiment: Inhibition of HIF2alpha in human 786-0 cells expressing truncated HIF1alpha assessed as reduction in luciferase activity after 24 hrs by reporter gene assay; assay type: cell-based
[13] = biological target: Hypoxia-inducible factor 1-alpha (Homo sapiens) (UniProt Q16665); experiment: Inhibition of HIF1alpha in human SK-RC-28 cells assessed as reduction in VEGFA expression at 79 uM after 48 hrs by RT-PCR analysis; assay type: cell-based
Chain of Hypoxia-inducible factor 1-alpha (Homo sapiens) (Q16665 whole entry, looked up): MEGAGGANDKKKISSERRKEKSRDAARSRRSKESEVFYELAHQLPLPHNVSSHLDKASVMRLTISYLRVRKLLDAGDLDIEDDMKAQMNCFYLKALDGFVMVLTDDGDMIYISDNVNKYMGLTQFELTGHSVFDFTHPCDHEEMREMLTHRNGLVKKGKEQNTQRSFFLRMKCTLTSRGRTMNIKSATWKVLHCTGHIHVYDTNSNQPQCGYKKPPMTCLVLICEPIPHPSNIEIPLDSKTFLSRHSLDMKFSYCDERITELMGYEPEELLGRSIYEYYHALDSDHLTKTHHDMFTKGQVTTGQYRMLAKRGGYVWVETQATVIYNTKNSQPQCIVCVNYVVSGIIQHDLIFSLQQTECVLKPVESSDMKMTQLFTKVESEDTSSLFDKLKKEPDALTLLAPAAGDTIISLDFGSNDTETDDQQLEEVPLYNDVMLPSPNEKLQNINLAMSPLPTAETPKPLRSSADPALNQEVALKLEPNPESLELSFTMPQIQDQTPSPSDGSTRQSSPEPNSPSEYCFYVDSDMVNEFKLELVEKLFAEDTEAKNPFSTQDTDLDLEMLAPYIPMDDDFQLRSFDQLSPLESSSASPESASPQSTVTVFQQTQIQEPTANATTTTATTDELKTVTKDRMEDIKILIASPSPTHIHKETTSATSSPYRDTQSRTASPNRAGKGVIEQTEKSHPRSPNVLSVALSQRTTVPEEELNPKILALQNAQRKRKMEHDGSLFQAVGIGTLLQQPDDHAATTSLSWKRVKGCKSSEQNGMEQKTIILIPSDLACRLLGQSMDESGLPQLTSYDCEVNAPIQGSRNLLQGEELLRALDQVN

[14] = biological target: Hypoxia-inducible factor 1-alpha (Homo sapiens) (UniProt Q16665); experiment: Inhibition of HIF1alpha in human SK-RC-28 cells assessed as reduction in carbonic anhydrase expression at 79 uM after 48 hrs by RT-PCR analysis; assay type: cell-based
[15] = Downregulation of HIF2alpha mRNA expression in human SK-RC-28 cells at 79 uM after 48 hrs by RT-PCR analysis; assay type: functional, cell-based
[16] = Downregulation of HIF1alpha mRNA expression in human SK-RC-28 cells at 79 uM after 48 hrs by RT-PCR analysis; assay type: functional, cell-based
[17] = Downregulation of CCND1 mRNA expression in human SK-RC-28 cells at 79 uM after 48 hrs by RT-PCR analysis; assay type: functional, cell-based
[18] = Downregulation of GLUT1 mRNA expression in human SK-RC-28 cells at 79 uM after 48 hrs by RT-PCR analysis; assay type: functional, cell-based
[19] = Downregulation of TGFalpha mRNA expression in human SK-RC-28 cells at 79 uM after 48 hrs by RT-PCR analysis; assay type: functional, cell-based
[20] = Downregulation of HIF2alpha mRNA expression in human RCC4 cells at 79 uM after 48 hrs by RT-PCR analysis; assay type: functional, cell-based
[21] = Downregulation of HIF1alpha mRNA expression in human RCC4 cells at 79 uM after 48 hrs by RT-PCR analysis; assay type: functional, cell-based
[22] = biological target: T2, Hypoxia inducible factors; HIF-1-alpha, HIF-2-alpha (Homo sapiens) (UniProt Q16665+Q99814); experiment: Inhibition of HIF1alpha/2alpha in human RCC4 cells assessed as reduction in VEGFA mRNA expression at 79 uM after 48 hrs by RT-PCR analysis; assay type: cell-based
[23] = biological target: T1, Endothelial PAS domain-containing protein 1; experiment: Inhibition of HIF2alpha in human RCC4 cells coexpressing HIF1alpha assessed as reduction in CCND1 mRNA expression at 79 uM after 48 hrs by RT-PCR analysis; assay type: cell-based
[24] = biological target: T1, Endothelial PAS domain-containing protein 1; experiment: Inhibition of HIF2alpha in human RCC4 cells coexpressing HIF1alpha assessed as reduction in GLUT1 mRNA expression at 79 uM after 48 hrs by RT-PCR analysis; assay type: cell-based
[25] = biological target: T1, Endothelial PAS domain-containing protein 1; experiment: Inhibition of HIF2alpha in human RCC4 cells coexpressing HIF1alpha assessed as reduction in TGFalpha mRNA expression at 79 uM after 48 hrs by RT-PCR analysis; assay type: cell-based
[26] = biological target: Hypoxia-inducible factor 1-alpha (Homo sapiens) (UniProt Q16665); experiment: Inhibition of HIF1alpha in human RCC4 cells coexpressing HIF2alpha assessed as decrease in carbonic anhydrase 9 mRNA expression at 79 uM after 48 hrs by RT-PCR analysis; assay type: cell-based
786-0 [27] = experiment: Downregulation of HIF2alpha mRNA expression in human 786-0 cells at 79 uM after 48 hrs by RT-PCR analysis; assay type: functional, cell-based
total protein expression = experiment: Inhibition of total protein expression in serum deprived human 786-0 cells at 20 uM after 48 hrs relative to control; assay type: cell-based; details: 786-0 cells
786-0 [28] = experiment: Inhibition of HIF-mediated VEGFA protein expression in serum deprived human 786-0 cells at 21 uM after 48 hrs relative to control; assay type: cell-based
[29] = Downregulation of actin mRNA expression in human SK-RC-28 cells expressing HIF2alpha at 21 uM after 48 hrs by RT-PCr analysis; assay type: ADME, cell-based
[30] = Downregulation of actin mRNA expression in human RCC4 cells expressing HIF1alpha and HIF2alpha at 21 uM after 48 hrs by RT-PCr analysis; assay type: ADME, cell-based; details: rcc4, 48 h
786-0 [31] = experiment: Downregulation of actin mRNA expression in human […] at 21 uM after 48 hrs by RT-PCr analysis; assay type: ADME, cell-based; details: 786-0, 48 h
[32] = Downregulation of HIF2alpha mRNA expression in human SK-RC-28 cells at 21 uM after 48 hrs by RT-PCR analysis; assay type: functional, cell-based
[33] = Downregulation of HIF1alpha mRNA expression in human SK-RC-28 cells at 21 uM after 48 hrs by RT-PCR analysis; assay type: functional, cell-based
[34] = Downregulation of CCND1 mRNA expression in human SK-RC-28 cells at 21 uM after 48 hrs by RT-PCR analysis; assay type: functional, cell-based
[35] = Downregulation of GLUT1 mRNA expression in human SK-RC-28 cells at 21 uM after 48 hrs by RT-PCR analysis; assay type: functional, cell-based
[36] = Downregulation of TGFalpha mRNA expression in human SK-RC-28 cells at 21 uM after 48 hrs by RT-PCR analysis; assay type: functional, cell-based
[37] = biological target: Hypoxia-inducible factor 1-alpha (Homo sapiens) (UniProt Q16665); experiment: Inhibition of HIF1alpha in human SK-RC-28 cells assessed as reduction in VEGFA expression at 21 uM after 48 hrs by RT-PCR analysis; assay type: cell-based
[38] = biological target: Hypoxia-inducible factor 1-alpha (Homo sapiens) (UniProt Q16665); experiment: Inhibition of HIF1alpha in human SK-RC-28 cells assessed as reduction in carbonic anhydrase 9 expression at 21 uM after 48 hrs by RT-PCR analysis; assay type: cell-based
[39] = Downregulation of HIF2alpha mRNA expression in human RCC4 cells at 21 uM after 48 hrs by RT-PCR analysis; assay type: functional, cell-based
[40] = Downregulation of HIF1alpha mRNA expression in human RCC4 cells at 21 uM after 48 hrs by RT-PCR analysis; assay type: functional, cell-based
[41] = biological target: T2, Hypoxia inducible factors; HIF-1-alpha, HIF-2-alpha (Homo sapiens); experiment: Inhibition of HIF1alpha/2alpha in human RCC4 cells assessed as reduction in VEGFA mRNA expression at 21 uM after 48 hrs by RT-PCR analysis; assay type: cell-based
[42] = biological target: T1, Endothelial PAS domain-containing protein 1; experiment: Inhibition of HIF2alpha in human RCC4 cells coexpressing HIF1alpha assessed as reduction in CCND1 mRNA expression at 21 uM after 48 hrs by RT-PCR analysis; assay type: cell-based
[43] = biological target: T1, Endothelial PAS domain-containing protein 1; experiment: Inhibition of HIF2alpha in human RCC4 cells coexpressing HIF1alpha assessed as reduction in GLUT1 mRNA expression at 21 uM after 48 hrs by RT-PCR analysis; assay type: cell-based
[44] = biological target: T1, Endothelial PAS domain-containing protein 1; experiment: Inhibition of HIF2alpha in human RCC4 cells coexpressing HIF1alpha assessed as reduction in TGFalpha mRNA expression at 21 uM after 48 hrs by RT-PCR analysis; assay type: cell-based
[45] = biological target: Hypoxia-inducible factor 1-alpha (Homo sapiens) (UniProt Q16665); experiment: Inhibition of HIF1alpha in human RCC4 cells coexpressing HIF2alpha assessed as decrease in carbonic anhydrase 9 mRNA expression at 21 uM after 48 hrs by RT-PCR analysis; assay type: cell-based
786-0 [46] = experiment: Downregulation of HIF2alpha mRNA expression in human 786-0 cells at 21 uM after 48 hrs by RT-PCR analysis; assay type: functional, cell-based
786-0 [47] = experiment: Downregulation of HIF1alpha mRNA expression in human 786-0 cells at 21 uM after 48 hrs by RT-PCR analysis; assay type: functional, cell-based
[48] = biological target: T1, Endothelial PAS domain-containing protein 1; experiment: Inhibition of HIF2alpha in human 786-0 cells assessed as reduction in VEGFA expression at 21 uM after 48 hrs by RT-PCR analysis; assay type: cell-based
[49] = biological target: T1, Endothelial PAS domain-containing protein 1; experiment: Inhibition of HIF2alpha in human 786-0 cells assessed as reduction in CCND1 mRNA expression at 21 uM after 48 hrs by RT-PCR analysis; assay type: cell-based
[50] = biological target: T1, Endothelial PAS domain-containing protein 1; experiment: Inhibition of HIF2alpha in human 786-0 cells assessed as reduction in GLUT1 mRNA expression at 21 uM after 48 hrs by RT-PCR analysis; assay type: cell-based
[51] = biological target: T1, Endothelial PAS domain-containing protein 1; experiment: Inhibition of HIF2alpha in human 786-0 cells assessed as reduction in TGFalpha mRNA expression at 21 uM after 48 hrs by RT-PCR analysis; assay type: cell-based
786-0 [52] = experiment: Downregulation of carbonic anhydrase 9 expression in human 786-0 cells at 21 uM after 48 hrs by RT-PCR analysis; assay type: functional, cell-based

## C/C=C(/C)C(=O)OCC1C2=C(C=CN1C=O)C(=O)C(C)=C(OC)C2=O (mixture of isomers)
786-0 [1]
  Activity: Active
786-0 [2]
  Activity: Toxic
[3]
  inhibition: Active
[4]
  inhibition: Active
[5]
  inhibition: Active
[6]
  inhibition: Active
[7]
  IC50: 38.7 µM
[8]
  IC50: 26.3 µM
786-0 [9]
  IC50: 33.8 µM
786-0 [10]
  Activity: Toxic
786-0 [11]
  Activity: Active
[12]
  EC50: 2.7 µM
[13]
  inhibition: inactive
[14]
  inhibition: inactive
[15]
  Activity: inactive
[16]
  Activity: inactive
[17]
  Activity: inactive
[18]
  Activity: inactive
[19]
  Activity: inactive
[20]
  Activity: Active
[21]
  Activity: Active
[22]
  inhibition: Active
[23]
  inhibition: Active
[24]
  inhibition: Active
[25]
  inhibition: Active
[26]
  inhibition: Active
786-0 [27]
  Activity: Active

## C1=C/[C@H]2[C@@H]3CCCC[C@H]3C[C@@H]2NCCCN[C@@H]2C[C@@H]3CCCC[C@H]3[C@@H]2/C=C/1 [HALICLONADIAMINE]
[7]
  IC50: 16.1 µM
786-0 [9]
  IC50: 15.1 µM
Total protein expression
  inhibition at 48 h, 20 µM: 20%
786-0 [28]
  inhibition: 50%
[12]
  EC50: 14.8 µM
[29]
  Activity: Toxic
[30]
  Activity: Toxic
786-0 [31]
  Activity: Toxic
[32]
  Activity: Active
[33]
  Activity: Active
[34]
  Activity: Active
[35]
  Activity: Active
[36]
  Activity: Active
[37]
  inhibition: Active
[38]
  inhibition: Active
[39]
  Activity: Active
[40]
  Activity: Active
[41]
  inhibition: Active
[42]
  inhibition: Active
[43]
  inhibition: Active
[44]
  inhibition: Active
[45]
  inhibition: Active
786-0 [46]
  Activity: Active
786-0 [47]
  Activity: Active
[48]
  inhibition: Active
[49]
  inhibition: Active
[50]
  inhibition: Active
[51]
  inhibition: Active
786-0 [52]
  Activity: Active
